Test system: endogenous cellular STAT1 (phosphorylated at Tyr701) in NCI-H1373 cells
Experiment: Phospho-STAT1 (Tyr701) LANCE Ultra TR-FRET Detection Assay
Assay type: cell-based
Conditions: Homo sapiens, NCI-H1373, 48 h, phospho-STAT1 (Tyr701) induction, read-out: NH1373 pSTAT1 EC50
Experimental: Phospho-STAT1 (Tyr701 LANCE Ultra TR-FRET Detection Assay
d. LANCE Ultra phospho-STAT1 (Tyr701) kits are designed for the detection of phosphorylated STAT1 in cell lysates using a simple, homogeneous LANCE Ultra sandwich assay (Cat. #TRF4028M). This assay is intended for assessing compound induction of endogenous levels of cellular STAT1 (phosphorylated at Tyr701) in NCI-H1373 cells. The NCI-H1373 cells are cultured in RPMI 1640 media containing 10% heat inactivated FBS, GlutaMAX, 1% Penicillin-Streptomycin. An Echo acoustic liquid handler is used to transfer 60 nanoliters of compound dilutions using the Echo Qualified, 384-well polypropylene microplate clear flat bottom source plates into a Greiner (#781080) cell culture microplate. NCI-H1373 cells are seeded into these compound-spotted culture plates at 30,000 cells/well in a 60 uL volume in growth media. The plates are incubated in a 5% CO2 humidified incubator at 37° C. for 48 hours. […] After spinning the plate down at 300 rpm for 1 min, the plate is read on an EnVision plate reader set up for Eu3+ Cryptate and fluorescence emission is measured at two different wavelengths (665 nm and 620 nm). The HTRF ratio is then calculated […] for each well to determine the amount of pSTAT1 in the cell lysate, and the data is then normalized to 10 uM GS-1154611 positive and DMSO negative controls.

EC50 [µM] | Structure (SMILES)
0.443 | O=c1[nH]ncc(N[C@H]2CCCC[C@H]2CCn2ccc3cc(-c4ncc(C(F)(F)F)cn4)c(F)cc3c2=O)c1C(F)(F)F (racemic) [Example 436, (rac)-7-fluoro-2-(2-((1S,2S)-2-((6-oxo-5-(trifluoromethyl)-1,6-dihydropyridazin-4-yl)amino)cyclohexyl)ethyl)-6-(5-(trifluoromethyl)pyrimidin-2-yl)isoquinolin-1(2H)-one]
0.102 | O=c1[nH]ncc(N[C@H]2CCC[C@H]2CCn2ccc3cc(-c4ncc(C(F)(F)F)cn4)c(F)cc3c2=O)c1C(F)(F)F (racemic) [Example 437, (rac)-7-fluoro-2-(2-((1S,2S)-2-((6-oxo-5-(trifluoromethyl)-1,6-dihydropyridazin-4-yl)amino)cyclopentyl)ethyl)-6-(5-(trifluoromethyl)pyrimidin-2-yl)isoquinolin-1(2H)-one]
0.388 | Nc1nc(-c2cc3ccn(CC[C@H]4COC[C@@H]4Nc4cn[nH]c(=O)c4C(F)(F)F)c(=O)c3cc2F)ncc1C(F)(F)F (racemic) [Example 441, (rac) 6-(4-amino-5-(trifluoromethyl)pyrimidin-2-yl)-7-fluoro-2-(2-((3R,4R)-4-((6-oxo-5-(trifluoromethyl)-1,6-dihydropyridazin-4-yl)amino)tetrahydrofuran-3-yl)ethyl)isoquinolin-1(2H)-one]
10 | C[C@H](CCCn1ccc2cc(-c3ccc(C(F)(F)F)cn3)ccc2c1=O)Nc1cn[nH]c(=O)c1C(F)(F)F (single isomer, unassigned) [Example 2]
0.108 | C[C@@H](CCCn1ccc2cc(-c3ccc(C(F)(F)F)cn3)ccc2c1=O)Nc1cn[nH]c(=O)c1C(F)(F)F (single isomer, unassigned) [Example 3]
0.00921 | [2H][C@@](C)(CCCn1ccc2cc(-c3ncc(C(F)(F)F)cn3)c(F)c(F)c2c1=O)Nc1cn[nH]c(=O)c1C(F)(F)F (single isomer, unassigned) [Example 86]
10 | [2H][C@](C)(CCCn1ccc2cc(-c3ncc(C(F)(F)F)cn3)c(F)c(F)c2c1=O)Nc1cn[nH]c(=O)c1C(F)(F)F (single isomer, unassigned) [Example 87]
0.399 | O=c1[nH]ncc(N2CC[C@@H]2CCCn2ccc3cc(-c4ncc(C(F)(F)F)cn4)c(F)cc3c2=O)c1C(F)(F)F (single isomer, unassigned) [Example 148]
0.00398 | O=c1[nH]ncc(N2CC[C@H]2CCCn2ccc3cc(-c4ncc(C(F)(F)F)cn4)c(F)cc3c2=O)c1C(F)(F)F (single isomer, unassigned) [Example 149]
0.0587 | O=c1[nH]ncc(N2CC[C@@H]2CCCn2cnc3cc(-c4ncc(C(F)(F)F)cn4)c(F)cc3c2=O)c1C(F)(F)F (single isomer, unassigned) [Example 151]
0.000508 | O=c1[nH]ncc(N2CC[C@H]2CCCn2cnc3cc(-c4ncc(C(F)(F)F)cn4)c(F)cc3c2=O)c1C(F)(F)F (single isomer, unassigned) [Example 152]
0.0828 | C[C@@H](C[C@H](O)Cn1ccc2cc(-c3ncc(C(F)(F)F)cn3)c(F)cc2c1=O)Nc1cn[nH]c(=O)c1C(F)(F)F (single isomer, unassigned) [Example 479]
0.00414 | C[C@@H](C[C@@H](O)Cn1ccc2cc(-c3ncc(C(F)(F)F)cn3)c(F)cc2c1=O)Nc1cn[nH]c(=O)c1C(F)(F)F (single isomer, unassigned) [Example 480]
0.0978 | CC(CCCn1ccc2cc(-c3ccc(C(F)(F)F)cn3)ccc2c1=O)Nc1cn[nH]c(=O)c1C(F)(F)F (stereo not shown) [Example 1, 2-(4-((6-oxo-5-(trifluoromethyl)-1,6-dihydropyridazin-4-yl)amino)pentyl)-6-(5-(trifluoromethyl)pyridin-2-yl)isoquinolin-1(2H)-one]
0.0449 | C[C@@H](CCCn1ccc2cc(-c3ccc(C(F)F)cn3)c(F)c(F)c2c1=O)Nc1cn[nH]c(=O)c1C(F)(F)F [Example 51, (S)-6-(5-(difluoromethyl)pyridin-2-yl)-7,8-difluoro-2-(4-((6-oxo-5-(trifluoromethyl)-1,6-dihydropyridazin-4-yl)amino)pentyl)isoquinolin-1(2H)-one]
0.0313 | C[C@@H](CCCn1cnc2cc(-c3ncc4cc[nH]c4n3)c(F)cc2c1=O)Nc1cn[nH]c(=O)c1C(F)(F)F [Example 62, 6-fluoro-3-[(4S)-4-[[6-oxo-5-(trifluoromethyl)-1H-pyridazin-4-yl]amino]pentyl]-7-(7H-pyrrolo[2,3-d]pyrimidin-2-yl)quinazolin-4-one]
0.00715 | Cc1c[nH]c2nc(-c3cc4ncn(CCC[C@H](C)Nc5cn[nH]c(=O)c5C(F)(F)F)c(=O)c4cc3F)ncc12 [Example 63, 6-fluoro-7-(5-methyl-7H-pyrrolo[2,3-d]pyrimidin-2-yl)-3-[(4S)-4-[[6-oxo-5-(trifluoromethyl)-1H-pyridazin-4-yl]amino]pentyl]quinazolin-4-one]
0.0373 | C[C@@H](CCCn1cnc2cc(-c3ncc4c(F)c[nH]c4n3)c(F)cc2c1=O)Nc1cn[nH]c(=O)c1C(F)(F)F [Example 64, 6-fluoro-7-(5-fluoro-7H-pyrrolo[2,3-d]pyrimidin-2-yl)-3-[(4S)-4-[[6-oxo-5-(trifluoromethyl)-1H-pyridazin-4-yl]amino]pentyl]quinazolin-4-one]
0.0292 | C[C@@H](CCCn1cnc2cc(-c3ncc(C4CC4)c(N)n3)c(F)cc2c1=O)Nc1cn[nH]c(=O)c1C(F)(F)F [Example 65, 7-(4-amino-5-cyclopropyl-pyrimidin-2-yl)-6-fluoro-3-[(4S)-4-[[6-oxo-5-(trifluoromethyl)-1H-pyridazin-4-yl]amino]pentyl]quinazolin-4-one]
0.0715 | COc1cnc(-c2cc3ncn(CCC[C@H](C)Nc4cn[nH]c(=O)c4C(F)(F)F)c(=O)c3cc2F)nc1N [Example 66, 7-(4-amino-5-methoxy-pyrimidin-2-yl)-6-fluoro-3-[(4S)-4-[[6-oxo-5-(trifluoromethyl)-1H-pyridazin-4-yl]amino]pentyl]quinazolin-4-one]
0.218 | C[C@@H](CCCn1cnc2cc(-c3ncc(F)c(N)n3)c(F)cc2c1=O)Nc1cn[nH]c(=O)c1C(F)(F)F [Example 67, 7-(4-amino-5-fluoro-pyrimidin-2-yl)-6-fluoro-3-[(4S)-4-[[6-oxo-5-(trifluoromethyl)-1H-pyridazin-4-yl]amino]pentyl]quinazolin-4-one]
10 | C[C@H](Nc1cn[nH]c(=O)c1C(F)(F)F)[C@@H]1C[C@H]1Cn1ccc2cc(-c3ncc(C(F)(F)F)cn3)c(F)cc2c1=O [Example 68, 7-fluoro-2-[[(1R,2R)-2-[(1S)-1-[[6-oxo-5-(trifluoromethyl)-1H-pyridazin-4-yl]amino]ethyl]cyclopropyl]methyl]-6-[5-(trifluoromethyl)pyrimidin-2-yl]isoquinolin-1-one]
0.148 | C[C@@H](CCCn1ccc2cc(-c3ncc(N4CC(O)(C(F)(F)F)C4)cn3)c(F)cc2c1=O)Nc1cn[nH]c(=O)c1C(F)(F)F [Example 69, 7-fluoro-6-[5-[3-hydroxy-3-(trifluoromethyl)azetidin-1-yl]pyrimidin-2-yl]-2-[(4S)-4-[[6-oxo-5-(trifluoromethyl)-1H-pyridazin-4-yl]amino]pentyl]isoquinolin-1-one]
0.0221 | CC[C@@H](CCCn1ccc2cc(-c3ncc(C#N)c(N)n3)c(F)cc2c1=O)Nc1cn[nH]c(=O)c1C(F)(F)F [Example 70, 4-amino-2-[7-fluoro-1-oxo-2-[(4S)-4-[[6-oxo-5-(trifluoromethyl)-1H-pyridazin-4-yl]amino]hexyl]-6-isoquinolyl]pyrimidine-5-carbonitrile]
0.00594 | CC[C@@H](CCCn1ccc2cc(-c3ncc(C(F)(F)F)c(N)n3)c(F)cc2c1=O)Nc1cn[nH]c(=O)c1C(F)(F)F [Example 71, 6-[4-amino-5-(trifluoromethyl)pyrimidin-2-yl]-7-fluoro-2-[(4S)-4-[[6-oxo-5-(trifluoromethyl)-1H-pyridazin-4-yl]amino]hexyl]isoquinolin-1-one]
0.00585 | O=c1[nH]ncc(N2CCC2CCCn2ccc3cc(-c4ncc(C(F)(F)F)cn4)c(F)cc3c2=O)c1C(F)(F)F (stereo not shown) [Example 72, 7-fluoro-2-[3-[1-[6-oxo-5-(trifluoromethyl)-1H-pyridazin-4-yl]azetidin-2-yl]propyl]-6-[5-(trifluoromethyl)pyrimidin-2-yl]isoquinolin-1-one]
0.734 | CC(C)(O)[C@@H](CCCn1ccc2cc(-c3ncc(C(F)(F)F)cn3)c(F)cc2c1=O)Nc1cn[nH]c(=O)c1C(F)(F)F [Example 73, 7-fluoro-2-[(4R)-5-hydroxy-5-methyl-4-[[6-oxo-5-(trifluoromethyl)-1H-pyridazin-4-yl]amino]hexyl]-6-[5-(trifluoromethyl)pyrimidin-2-yl]isoquinolin-1-one]
0.0653 | C[C@@H](CCCn1ccc2cc(-c3ncc(C(C)(C)O)cn3)c(F)cc2c1=O)Nc1cn[nH]c(=O)c1C(F)(F)F [Example 74, 7-fluoro-6-[5-(1-hydroxy-1-methyl-ethyl)pyrimidin-2-yl]-2-[(4S)-4-[[6-oxo-5-(trifluoromethyl)-1H-pyridazin-4-yl]amino]pentyl]isoquinolin-1-one]

Source: patent US12459922B2 (Gilead Sciences, Inc., priority 2022, dated 2025)
